Measurements as given in patent US20150031102A1, “METHODS AND COMPOSITIONS FOR ENHANCED PRODUCTION OF BUTANOL BY CLOSTRIDIA” (Butrolix LLC, priority 2012, published 2015).
Where “and” joins values, the source holds several entries; their conditions need not be identical. Equal values may be shown once.

Tested on: Clostridium acetobutylicum strain ATCC 824
Experiment: Sequential batch transfer in 24-well culture plates (butanol, residual glucose, butanol yield and productivity)
Format: cell-based
Settings: for Butanol: Experiment 1; for Residual glucose concentration: initial glucose 60 g/L
Protocol: Each well contained 1.5 mL of growth medium. Peptide was added to each well at the indicated concentration (0, 25, 50, and 100 nM). Every 24 hours fresh medium and peptide treatment were added to a new column of wells then 1.5 μL of the previous day culture was transferred to the new well. Wells were harvested for glucose and butanol analysis after 96 hours of growth. Transfers 1, 4, 7, 10, 13, 16, […].
Briefly, Clostridium spores were germinated in a suitable growth medium for 18-24 hours then […] was transferred to 1.5 mL of fresh medium in each of four wells on a 24-well culture plate. Three of the wells had been treated with 25 nM, 50 nM and 100 nM of peptide, respectively while the fourth well was untreated. Thereafter, every 24 hours […] of each subculture was transferred to 1.5 mL of fresh medium that contained the same peptide treatment or no treatment. Transfers of successive subcultures were done for 24 days, and each subculture was grown for 96 hours before being harvested. Culture supernatants were recovered following centrifugation and were analyzed for butanol and residual glucose concentrations. Determination of optimum peptide treatment levels was based on a graphical comparison of the concentration of butanol in each of the four culture wells for sequential transfers 1, 4, 7, 10, 13, 16, 19, 22 and 24.
Clostridium acetobutylicum strain ATCC 824 was used in all experiments and the growth medium used for sequential batch transfer, time course, and continuous culture experiments contained yeast extract, casamino acids, L-cysteine, L-asparagine, phosphate buffer, trace minerals, and 6% glucose. What are believed to be quorum-sensing peptides that were used in the experiments were chemically synthesized peptides SEQ ID NO: 143 (amino acid sequence: SYPGWSW) and SEQ ID NO: 144 (amino acid sequence: ILILISG). Routine growth of the bacteria as well as the sequential batch and time course experiments were conducted in a Form a Scientific Model 1029 anaerobic gas chamber at 32° C. Continuous cultures were performed at 32° C. using duplicate New Brunswick Scientific BioFlo 3000 apparati with a dilution rate of 0.01 volume per hour, 75 rpm agitation, and nitrogen gas sparging. Optical density of culture samples was measured at 600 nm in a Beckman DU 600 series spectrophotometer and glucose was analyzed using a YSI Model 2700 Select Biochemistry Analyzer with internal glucose calibration. Butanol concentrations were determined by measuring experimental and standard samples using a Varian Saturn 3 Gas Chromatograph/Mass Spectrometer and calculating butanol concentrations using standard curves.
(§1) Sequential batch transfer experiments were carried out in 24-well culture plates that contained 1.5 mL of medium per well. Peptide was added to each well at the indicated concentrations of 0 nM (control), 25 nM, 50 nM, or 100 nM. Every 24 hours, fresh medium and peptide treatments were added to a new column of wells. Then, 1.5 uL of the previous day culture was transferred to the new well. Wells were harvested for glucose and butanol analysis after 96 hours of growth; transfers 1, 4, 7, 10, 13, 16, 19, 22, and 24 were analyzed. Two representative experiments are shown in Tables 30 and 31 and FIGS. 14 and 15.
as §1, with “32” for “30”, “33” for “31”, “16” for “14”, “17.” for “15.”

[1] = 50 nM, transfer 10, first experiment, after 96 hours of culture
[2] = 50 nM, transfer 13, first experiment, after 96 hours of culture
[3] = 50 nM, transfer 16, first experiment, after 96 hours of culture
[4] = 50 nM, transfer 19, first experiment, after 96 hours of culture
[5] = 50 nM, transfer 22, first experiment, after 96 hours of culture
[6] = 50 nM, transfer 24, first experiment, after 96 hours of culture
[7] = 100 nM peptide, transfer 1, after 96 hours of culture, Expt. 2 (repeat)
[8] = 100 nM peptide, transfer 4, after 96 hours of culture, Expt. 2 (repeat)
[9] = 100 nM peptide, transfer 7, after 96 hours of culture, Expt. 2 (repeat)
[10] = 100 nM peptide, transfer 10, after 96 hours of culture, Expt. 2 (repeat)
[11] = 100 nM peptide, transfer 13, after 96 hours of culture, Expt. 2 (repeat)
[12] = 100 nM peptide, transfer 16, after 96 hours of culture, Expt. 2 (repeat)
[13] = 100 nM peptide, transfer 19, after 96 hours of culture, Expt. 2 (repeat)
[14] = 100 nM peptide, transfer 22, after 96 hours of culture, Expt. 2 (repeat)
[15] = 100 nM peptide, transfer 24, after 96 hours of culture, Expt. 2 (repeat)
[16] = 100 nM, transfer 1, first experiment, after 96 hours of culture
[17] = 100 nM, transfer 4, first experiment, after 96 hours of culture
[18] = 100 nM, transfer 7, first experiment, after 96 hours of culture
[19] = 100 nM, transfer 10, first experiment, after 96 hours of culture
[20] = 100 nM, transfer 13, first experiment, after 96 hours of culture
[21] = 100 nM, transfer 16, first experiment, after 96 hours of culture
[22] = 100 nM, transfer 19, first experiment, after 96 hours of culture
[23] = 100 nM, transfer 22, first experiment, after 96 hours of culture
[24] = 100 nM, transfer 24, first experiment, after 96 hours of culture
[25] = BP110517 first experiment, 25 nM, transfers 19, 22 and 24
[26] = BP110517 first experiment, 50 nM, transfer 10

Substance: SYPGWSW [peptide SEQ ID NO: 143]
- Butanol (50 nM, transfer 10, after 96 hours of culture, listed as BP110517): 13.7 g/L and 13.66 g/L
- Butanol productivity [1]: 0.14 g butanol/L-h
- Butanol yield [1]: 0.23 g butanol/g/glucose
- Residual glucose concentration [1]: 0.1 g/L
- Butanol (50 nM, transfer 13, after 96 hours of culture): 10.28 g/L
- Butanol productivity [2]: 0.11 g butanol/L-h
- Butanol yield [2]: 0.17 g butanol/g/glucose
- Residual glucose concentration [2]: 0.1 g/L
- Butanol (50 nM, transfer 16, after 96 hours of culture): 10.95 g/L
- Butanol productivity [3]: 0.11 g butanol/L-h
- Butanol yield [3]: 0.18 g butanol/g/glucose
- Residual glucose concentration [3]: 0.1 g/L
- Butanol (50 nM, transfer 19, after 96 hours of culture): 3.96 g/L
- Butanol productivity [4]: 0.04 g butanol/L-h
- Butanol yield [4]: 0.07 g butanol/g/glucose
- Residual glucose concentration [4]: 47.6 g/L
- Butanol (50 nM, transfer 22, after 96 hours of culture): 5.35 g/L
- Butanol productivity [5]: 0.06 g butanol/L-h
- Butanol yield [5]: 0.09 g butanol/g/glucose
- Residual glucose concentration [5]: 45.9 g/L
- Butanol (50 nM, transfer 24, after 96 hours of culture): 4.70 g/L
- Butanol productivity [6]: 0.05 g butanol/L-h
- Butanol yield [6]: 0.08 g butanol/g/glucose
- Residual glucose concentration [6]: 50.2 g/L
- Butanol concentration [7]: 0.62 g/L
- Butanol productivity [7]: 0.01 g butanol/L-h
- Butanol yield [7]: 0.01 g butanol/g/glucose
- Residual glucose concentration [7]: 55.6 g/L
- Butanol concentration [8]: 1.50 g/L
- Butanol productivity [8]: 0.02 g butanol/L-h
- Butanol yield [8]: 0.03 g butanol/g/glucose
- Residual glucose concentration [8]: 49.3 g/L
- Butanol concentration [9]: 4.10 g/L
- Butanol productivity [9]: 0.04 g butanol/L-h
- Butanol yield [9]: 0.07 g butanol/g/glucose
- Residual glucose concentration [9]: 0.1 g/L
- Butanol concentration [10]: 7.37 g/L
- Butanol productivity [10]: 0.08 g butanol/L-h
- Butanol yield [10]: 0.13 g butanol/g/glucose
- Residual glucose concentration [10]: 0.1 g/L
- Butanol concentration [11]: 5.60 g/L
- Butanol productivity [11]: 0.06 g butanol/L-h
- Butanol yield [11]: 0.10 g butanol/g/glucose
- Residual glucose concentration [11]: 0.1 g/L
- Butanol concentration [12]: 7.51 g/L
- Butanol productivity [12]: 0.08 g butanol/L-h
- Butanol yield [12]: 0.13 g butanol/g/glucose
- Residual glucose concentration [12]: 0.1 g/L
- Butanol concentration [13]: 4.03 g/L
- Butanol productivity [13]: 0.04 g butanol/L-h
- Butanol yield [13]: 0.07 g butanol/g/glucose
- Residual glucose concentration [13]: 0.1 g/L
- Butanol concentration [14]: 5.05 g/L
- Butanol productivity [14]: 0.05 g butanol/L-h
- Butanol yield [14]: 0.09 g butanol/g/glucose
- Residual glucose concentration [14]: 0.1 g/L
- Butanol concentration [15]: 3.42 g/L
- Butanol productivity [15]: 0.04 g butanol/L-h
- Butanol yield [15]: 0.06 g butanol/g/glucose
- Residual glucose concentration [15]: 0.1 g/L
- Butanol (100 nM, transfer 1, after 96 hours of culture): 1.14 g/L
- Butanol productivity [16]: 0.01 g butanol/L-h
- Butanol yield [16]: 0.02 g butanol/g/glucose
- Residual glucose concentration [16]: 48.3 g/L
- Butanol (100 nM, transfer 4, after 96 hours of culture): 6.97 g/L
- Butanol productivity [17]: 0.07 g butanol/L-h
- Butanol yield [17]: 0.12 g butanol/g/glucose
- Residual glucose concentration [17]: 0.1 g/L
- Butanol (100 nM, transfer 7, after 96 hours of culture): 7.33 g/L
- Butanol productivity [18]: 0.08 g butanol/L-h
- Butanol yield [18]: 0.12 g butanol/g/glucose
- Residual glucose concentration [18]: 0.1 g/L
- Butanol (100 nM, transfer 10, after 96 hours of culture): 11.33 g/L
- Butanol productivity [19]: 0.12 g butanol/L-h
- Butanol yield [19]: 0.19 g butanol/g/glucose
- Residual glucose concentration [19]: 0.1 g/L
- Butanol (100 nM, transfer 13, after 96 hours of culture): 7.22 g/L
- Butanol productivity [20]: 0.08 g butanol/L-h
- Butanol yield [20]: 0.12 g butanol/g/glucose
- Residual glucose concentration [20]: 0.1 g/L
- Butanol (100 nM, transfer 16, after 96 hours of culture): 9.59 g/L
- Butanol productivity [21]: 0.10 g butanol/L-h
- Butanol yield [21]: 0.16 g butanol/g/glucose
- Residual glucose concentration [21]: 0.1 g/L
- Butanol (100 nM, transfer 19, after 96 hours of culture): 4.76 g/L
- Butanol productivity [22]: 0.05 g butanol/L-h
- Butanol yield [22]: 0.08 g butanol/g/glucose
- Residual glucose concentration [22]: 0.1 g/L
- Butanol (100 nM, transfer 22, after 96 hours of culture): 6.85 g/L
- Butanol productivity [23]: 0.07 g butanol/L-h
- Butanol yield [23]: 0.11 g butanol/g/glucose
- Residual glucose concentration [23]: 0.1 g/L
- Butanol (100 nM, transfer 24, after 96 hours of culture): 4.67 g/L
- Butanol productivity [24]: 0.05 g butanol/L-h
- Butanol yield [24]: 0.08 g butanol/g/glucose
- Residual glucose concentration [24]: 0.1 g/L
- Transfers over which butanol production was enhanced (BP110517, sequential batch cultures (summary of findings)): transfer 4 through transfer 19
- Butanol yield and productivity greater than untreated control (BP110517 first experiment, 25 nM, transfer 4): 23%
- Butanol yield and productivity greater than untreated control (BP110517 first experiment, 25 nM, transfer 16): 24%
- Decrease of butanol concentration below that of controls [25]: 20%
- Reduction in glucose utilization [25]: 80%
- Butanol yield and productivity greater than untreated control (BP110517 first experiment, 50 nM, transfer 4): 20%
- Butanol productivity [26]: 0.14 g butanol/1-hour
- Butanol yield [26]: 0.23 g butanol/g glucose
- Butanol yield and productivity greater than untreated control [26]: 46%
- Butanol yield and productivity greater than untreated control (BP110517 first experiment, 50 nM, transfer 16): 16%
- Effect on butanol production versus untreated control (BP110517 first experiment, 100 nM, except at transfer 10): generally resulted in decreased butanol production, or no difference from the untreated control
- Glucose consumption (BP110517 first experiment, all treated and untreated cultures, transfer 4 through transfer 16): ~100%
- Increase in butanol over untreated control (SEQ ID NO: 143 first experiment, 25 nM, transfer 4): ~25%
- Increase in butanol over untreated control (SEQ ID NO: 143 first experiment, 25 nM, transfer 4, listed as BP110517): 23%
- Increase in butanol over untreated control (SEQ ID NO: 143 first experiment, 25 nM, transfer 16): 24%
- Increase in butanol over untreated control (SEQ ID NO: 143 first experiment, 50 nM, transfer 4): ~25%
- Increase in butanol over untreated control (SEQ ID NO: 143 first experiment, 50 nM, transfer 4, listed as BP110517): 20%
- Increase in butanol over untreated control (SEQ ID NO: 143 first experiment, 50 nM, transfer 10): 46%
- Increase in butanol over untreated control (SEQ ID NO: 143 first experiment, 50 nM, transfer 16): 16%
- Increase in butanol over untreated control (SEQ ID NO: 143 first experiment, 100 nM, transfer 10): 21%
- Increase in butanol over untreated control (SEQ ID NO: 143 second experiment, 50 nM, transfer 10): more than 200%
- Increase in butanol over untreated control (SEQ ID NO: 143 second experiment, 50 nM, transfer 10, listed as BP110517): 223%
- Increase in butanol over untreated control (SEQ ID NO: 143 second experiment, 50 nM, transfer 13): 289%
- Increase in butanol over untreated control (SEQ ID NO: 143 second experiment, 50 nM, transfer 16): 170%
- Increase in butanol over untreated control (SEQ ID NO: 143 second experiment, 100 nM, transfer 10): more than 200%
- Effect on differentiation and butanol production (sequential and continuous cultures): inducer of differentiation and butanol production
